Here are results for 17 compounds from ChEMBL document CHEMBL4364276, “Discovery of 4-phenyl-2H-benzo[b][1,4]oxazin-3(4H)-one derivatives as potent and orally active PI3K/mTOR dual inhibitors” (Eur J Med Chem, 2019).

SMILES strings stand for the structures.

Assay [1] has as its system A-375. Kind of assay: Antiproliferative activity against human A375 cells assessed as reduction in cell viability incubated for 72 hrs by MTT assay. The class given is functional, cell-based. As to conditions: A-375, 72 h. For orientation: Tetrazolium assays rely on reduction of a dye to a coloured formazan, in cell work by metabolically active cells.
Assay [2] concerns HCT-116. Kind of assay: Antiproliferative activity against human HCT116 cells assessed as reduction in cell viability incubated for 72 hrs by MTT assay. The class given is functional, cell-based. The settings on record: HCT-116, 72 h.
Assay [3] relates to HeLa. In words: Antiproliferative activity against human HeLa cells assessed as reduction in cell viability incubated for 72 hrs by MTT assay. The class given is functional, cell-based.
Assay [4] deals with Serine/threonine-protein kinase mTOR (Homo sapiens, UniProt P42345). In words: Inhibition of recombinant human N-terminal FLAG-tagged mTOR (1362 to end residues) using Ulight-4E-BP1 as substrate incubated for 30 mins by fluorescence assay.
Assay [5] concerns the target PI3-kinase p110-delta/p85-alpha (Homo sapiens, UniProt O00329). Kind of assay: Inhibition of recombinant human full length N-terminal GST-tagged PI3Kdelta (1 to 1044 residues)/PIK3R1 (1 to 724 residues) expressed in baculovirus expression system using PIP2 as substrate incubated for 2 hrs by ADP-Glo assay. A general note: ADP-Glo turns the ADP formed in a reaction into a luminescent signal.

Assay [6] concerns the target Phosphatidylinositol 4,5-bisphosphate 3-kinase catalytic subunit alpha isoform (Homo sapiens, UniProt P42336). In words: Inhibition of recombinant human full length N-terminal GST-tagged PI3Kalpha (1 to 1068 residues)/PIK3R1 (1 to 724 residues) expressed in baculovirus expression system using PIP2 as substrate incubated for 1 hr by ADP-Glo assay.
The test system of assay [7] is MCF7. In words: cells. The settings on record: Homo sapiens, MCF7, 72 h.
Assay [8] relates to HepG2. In words: cells. As to conditions: Homo sapiens, HepG2, 72 h.
Assay [9] has as its system A549. Kind of assay: cells. As to conditions: Homo sapiens, A549, 72 h.

Chain of PI3-kinase p110-delta/p85-alpha (P27986 whole entry, the tested form may be a part): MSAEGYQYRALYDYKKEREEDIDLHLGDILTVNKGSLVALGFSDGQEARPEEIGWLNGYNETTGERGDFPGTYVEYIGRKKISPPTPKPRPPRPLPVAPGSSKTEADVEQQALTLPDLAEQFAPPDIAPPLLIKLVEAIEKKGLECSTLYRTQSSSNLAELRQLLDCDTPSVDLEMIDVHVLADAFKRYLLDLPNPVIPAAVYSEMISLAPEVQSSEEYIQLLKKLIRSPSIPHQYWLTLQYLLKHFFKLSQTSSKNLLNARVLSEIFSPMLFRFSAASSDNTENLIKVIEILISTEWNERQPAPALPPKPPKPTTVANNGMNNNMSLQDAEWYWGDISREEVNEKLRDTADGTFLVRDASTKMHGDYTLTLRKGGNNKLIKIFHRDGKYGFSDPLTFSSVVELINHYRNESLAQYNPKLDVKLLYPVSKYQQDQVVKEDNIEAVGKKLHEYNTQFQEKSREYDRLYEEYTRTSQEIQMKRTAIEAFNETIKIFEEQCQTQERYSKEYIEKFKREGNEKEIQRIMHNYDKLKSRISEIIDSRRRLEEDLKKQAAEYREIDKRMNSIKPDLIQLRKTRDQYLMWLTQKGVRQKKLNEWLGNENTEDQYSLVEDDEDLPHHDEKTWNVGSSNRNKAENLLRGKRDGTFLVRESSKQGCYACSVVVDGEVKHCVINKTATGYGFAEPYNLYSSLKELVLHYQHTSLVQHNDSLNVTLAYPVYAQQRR
Chain of PI3-kinase p110-delta/p85-alpha (O00329 whole entry, the tested form may be a part): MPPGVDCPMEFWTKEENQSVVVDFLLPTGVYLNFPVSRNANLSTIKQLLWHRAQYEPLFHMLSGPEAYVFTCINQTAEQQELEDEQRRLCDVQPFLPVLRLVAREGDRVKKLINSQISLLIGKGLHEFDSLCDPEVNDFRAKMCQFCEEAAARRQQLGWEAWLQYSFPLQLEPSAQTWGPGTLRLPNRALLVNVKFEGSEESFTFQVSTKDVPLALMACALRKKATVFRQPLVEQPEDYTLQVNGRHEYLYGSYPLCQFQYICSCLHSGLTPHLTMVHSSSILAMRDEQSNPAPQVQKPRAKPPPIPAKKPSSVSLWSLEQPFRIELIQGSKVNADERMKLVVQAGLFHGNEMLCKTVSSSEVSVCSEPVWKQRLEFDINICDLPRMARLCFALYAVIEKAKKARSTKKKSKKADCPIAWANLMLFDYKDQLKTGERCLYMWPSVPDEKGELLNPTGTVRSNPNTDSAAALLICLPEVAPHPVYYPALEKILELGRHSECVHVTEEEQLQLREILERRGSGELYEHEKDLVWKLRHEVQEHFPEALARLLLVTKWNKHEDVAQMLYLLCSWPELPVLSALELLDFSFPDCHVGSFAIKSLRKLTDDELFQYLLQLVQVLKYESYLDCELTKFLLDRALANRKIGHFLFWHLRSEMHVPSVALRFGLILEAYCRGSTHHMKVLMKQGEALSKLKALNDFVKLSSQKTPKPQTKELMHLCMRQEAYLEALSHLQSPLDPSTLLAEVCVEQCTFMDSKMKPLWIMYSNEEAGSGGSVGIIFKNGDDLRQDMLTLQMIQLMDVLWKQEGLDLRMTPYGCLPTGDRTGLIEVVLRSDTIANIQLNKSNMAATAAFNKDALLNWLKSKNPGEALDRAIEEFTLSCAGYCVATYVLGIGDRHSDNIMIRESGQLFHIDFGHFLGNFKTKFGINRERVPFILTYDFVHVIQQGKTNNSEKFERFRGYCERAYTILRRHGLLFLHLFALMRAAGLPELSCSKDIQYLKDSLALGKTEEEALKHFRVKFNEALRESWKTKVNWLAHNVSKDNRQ
Chain of Phosphatidylinositol 4,5-bisphosphate 3-kinase catalytic subunit alpha isoform (P42336 whole entry, looked up, the tested form may be a part, canonical isoform): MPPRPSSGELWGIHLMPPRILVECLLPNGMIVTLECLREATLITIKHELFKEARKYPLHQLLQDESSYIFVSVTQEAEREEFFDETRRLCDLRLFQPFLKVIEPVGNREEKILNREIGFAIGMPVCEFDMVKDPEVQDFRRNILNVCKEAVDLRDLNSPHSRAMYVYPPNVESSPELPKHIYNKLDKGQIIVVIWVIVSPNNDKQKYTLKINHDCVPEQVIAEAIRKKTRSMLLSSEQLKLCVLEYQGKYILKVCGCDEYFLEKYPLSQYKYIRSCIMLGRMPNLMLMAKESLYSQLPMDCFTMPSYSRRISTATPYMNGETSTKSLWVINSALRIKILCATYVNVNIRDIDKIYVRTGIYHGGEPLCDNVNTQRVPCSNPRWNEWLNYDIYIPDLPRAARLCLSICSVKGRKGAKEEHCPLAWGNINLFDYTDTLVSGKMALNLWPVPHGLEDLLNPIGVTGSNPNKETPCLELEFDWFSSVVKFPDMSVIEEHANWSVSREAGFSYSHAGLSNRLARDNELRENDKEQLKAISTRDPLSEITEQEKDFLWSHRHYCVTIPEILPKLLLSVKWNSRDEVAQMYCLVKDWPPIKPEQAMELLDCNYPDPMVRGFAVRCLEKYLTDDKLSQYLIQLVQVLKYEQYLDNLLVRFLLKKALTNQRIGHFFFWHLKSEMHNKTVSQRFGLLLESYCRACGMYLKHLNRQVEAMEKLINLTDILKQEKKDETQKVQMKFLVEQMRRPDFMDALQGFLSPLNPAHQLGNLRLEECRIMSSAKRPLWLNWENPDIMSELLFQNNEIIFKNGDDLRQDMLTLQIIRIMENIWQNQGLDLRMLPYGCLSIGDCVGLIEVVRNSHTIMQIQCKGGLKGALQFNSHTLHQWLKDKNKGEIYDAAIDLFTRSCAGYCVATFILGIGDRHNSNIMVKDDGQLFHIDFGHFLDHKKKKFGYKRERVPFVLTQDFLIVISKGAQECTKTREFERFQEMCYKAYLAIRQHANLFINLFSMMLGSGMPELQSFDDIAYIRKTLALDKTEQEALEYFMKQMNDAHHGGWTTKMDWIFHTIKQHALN

One may read the IC50 as the concentration that inhibits the measured activity by half. With `O=C1COc2ccc(-c3cnc4ccccc4c3)cc2N1C1CC1`, the IC50 is over 40 µM in assay [1]; over 40 µM in assay [2]; over 40 µM in [3]; over 1 µM in assay [4]; over 1 µM in [5]; over 1 µM in assay [6]. Also, the figures for the half-maximal inhibitory concentration (IC50) in [7], in assay [8] and in assay [9] were 29.5 µM, over 40 µM and over 40 µM, respectively.

With `COc1ccc(N2C(=O)COc3ccc(-c4ccc(O)cc4)cc32)cc1`, the half-inhibitory concentration (IC50) was over 40 µM in [1]; 26.1 µM in assay [2]; 16.4 µM in assay [3]; over 1 µM in [4]; over 1 µM in assay [5]; over 1 µM in assay [6]. Also, the results for the IC50 in assay [7], in assay [8] and in [9] were 17.3 µM, 10.8 µM and over 40 µM, respectively.

With `O=C1COc2ccc(-c3cccc(NS(=O)(=O)c4ccc(F)cc4)c3)cc2N1c1ccc(Cl)cc1`, the IC50 in assay [1] is 32.5 µM; in assay [2], 23.9 µM; in assay [3] it was 35 µM; in [4] it was over 1 µM; in [5] it was over 1 µM; in [6] it was over 1 µM. Also, the IC50 came to 39.8 µM in assay [7], 27.8 µM in assay [8] and 31.6 µM in assay [9].

With `COc1cccc(N2C(=O)COc3ccc(-c4ccc(O)cc4)cc32)c1`, the IC50 in [1] is 30.4 µM; in [2], 15.3 µM; in [3], over 40 µM; in assay [4], over 1 µM; in assay [5], over 1 µM; in [6], over 1 µM. The concentration for half-maximal inhibition (IC50) in assay [7] is over 40 µM; in assay [8] it was 26.1 µM; in [9] it was over 40 µM.

As for `O=C1COc2ccc(-c3cnc4ccccc4c3)cc2N1c1ccc(Cl)cc1`, the IC50 in [1] was over 40 µM; in assay [2], 36.1 µM; in assay [3], over 40 µM; in assay [4] it was over 1 µM; in assay [5], over 1 µM; in assay [6], over 1 µM. The IC50 in [7] was over 40 µM; in [8] it was 32.7 µM; in [9], over 40 µM.

As for `COc1ncc(-c2ccc3c(c2)N(C(C)C)C(=O)CO3)cc1NS(=O)(=O)c1ccc(F)cc1`, the half-inhibitory concentration (IC50) in assay [1] amounted to 9.95 µM; in [2] it was 19.2 µM; in assay [3] it was 2.79 µM; in [4] it was 0.0036 µM; in [5], 0.018 µM; in assay [6] it was 0.0453 µM. The half-maximal inhibitory concentration (IC50) in assay [7] stood at 16.9 µM; in [8] it was 37.2 µM; in [9], 4.92 µM.

As for `O=C1COc2ccc(-c3cnc(Cl)c(NS(=O)(=O)c4ccc(F)cc4)c3)cc2N1c1ccc(Cl)cc1`, the IC50 was 30.6 µM in assay [1]; 27.9 µM in assay [2]; over 40 µM in assay [3]; 0.0141 µM in [4]; 0.0032 µM in [5]; 0.002 µM in assay [6]. The IC50 in assay [7] came out at 32.8 µM; in assay [8], 33.9 µM; in assay [9], 21.6 µM.

For the compound `COc1ncc(-c2ccc3c(c2)N(c2ccc(Cl)cc2)C(=O)CO3)cc1NS(=O)(=O)c1ccc(F)cc1`, the half-maximal inhibitory concentration (IC50) in assay [1] was found to be 24.1 µM; in assay [2], 19.2 µM; in assay [3], 4.83 µM; in [4], 0.0126 µM; in assay [5], 0.018 µM; in assay [6] it was 0.022 µM. Further, the figures for the IC50 in [7], in assay [8] and in [9] were 27.6 µM, 17.9 µM and 8.35 µM, respectively.

On to `CC(C)N1C(=O)COc2ccc(-c3cnc(Cl)c(NS(=O)(=O)c4ccc(F)cc4)c3)cc21`, for which the half-maximal inhibitory concentration (IC50) amounted to 25.5 µM in [1]; 18.9 µM in [2]; 5.38 µM in [3]; 0.0043 µM in assay [4]; 0.0038 µM in assay [5]; 0.0155 µM in [6]. The 50% inhibitory concentration (IC50) is 26.6 µM in [7], 21.5 µM in assay [8] and 5.1 µM in assay [9].

Take `O=C1COc2ccc(-c3cnc4ccccc4c3)cc2N1c1ccc(F)cc1`: the IC50 in assay [1] was over 40 µM; in assay [2], over 40 µM; in assay [3] it was 38.8 µM; in assay [4], over 1 µM; in assay [5] it was over 1 µM; in assay [6] it was over 1 µM. The 50% inhibitory concentration (IC50) is over 40 µM in assay [7], 37.2 µM in [8] and over 40 µM in assay [9].

As for `O=C1COc2ccc(-c3ccc(O)cc3)cc2N1c1ccccc1`, the IC50 in assay [1] is over 40 µM; in assay [2], over 40 µM; in assay [3], over 40 µM; in assay [4], over 1 µM; in assay [5], over 1 µM; in assay [6] it was over 1 µM. In addition, the IC50 was 29 µM in assay [7], over 40 µM in assay [8] and over 40 µM in [9].

In the case of `COc1cccc(N2C(=O)COc3ccc(-c4cnc(OC)c(NS(=O)(=O)c5ccc(F)cc5)c4)cc32)c1`, the IC50 in assay [1] was over 40 µM; in [2], over 40 µM; in assay [3], over 40 µM; in assay [4] it was over 1 µM; in [5], over 1 µM; in assay [6], over 1 µM. The 50% inhibitory concentration (IC50) in assay [7] is over 40 µM; in assay [8] it was over 40 µM; in assay [9], 11.2 µM.

With `O=C1COc2ccc(-c3cnc(Cl)c(NS(=O)(=O)c4ccc(F)cc4)c3)cc2N1c1ccccc1`, the IC50 was found to be 36.9 µM in assay [1]; 39.8 µM in [2]; 10.3 µM in [3]; 0.0153 µM in assay [4]; 0.015 µM in [5]; 0.019 µM in assay [6]. Besides, the figures for the IC50 in assay [7], in assay [8] and in assay [9] were over 40 µM, 35.7 µM and 14.7 µM, respectively.

On to `COc1ccc(N2C(=O)COc3ccc(-c4cnc5ccccc5c4)cc32)cc1`, for which the IC50 in [1] is over 40 µM; in [2], over 40 µM; in assay [3], over 40 µM; in [4] it was over 1 µM; in [5], over 1 µM; in [6] it was over 1 µM. In addition, the half-maximal inhibitory concentration (IC50) in assay [7], in [8] and in assay [9] was over 40 µM each time.

`O=C1COc2ccc(-c3cccc(NS(=O)(=O)c4ccc(F)cc4)c3)cc2N1c1ccc(F)cc1`: the IC50 in assay [1] is over 40 µM; in assay [2], over 40 µM; in [3], over 40 µM; in assay [4], over 1 µM; in assay [5] it was over 10 µM; in assay [6], over 1 µM. For the same compound, the half-inhibitory concentration (IC50) in assay [7], in assay [8] and in assay [9] was over 40 µM throughout.

For the compound `COc1ncc(-c2ccc3c(c2)N(c2ccccc2)C(=O)CO3)cc1NS(=O)(=O)c1ccc(F)cc1`, the IC50 was determined as 15.2 µM in [1]; 18.8 µM in [2]; 1.53 µM in assay [3]; 0.0486 µM in [4]; 0.08 µM in assay [5]; 0.102 µM in assay [6]. The IC50 in assay [7] was found to be 8.87 µM; in assay [8], 14 µM; in assay [9], 3.49 µM.

As for `O=C1COc2ccc(-c3cnc(Cl)c(NS(=O)(=O)c4ccc(F)cc4)c3)cc2N1`, the IC50 in [1] is over 40 µM; in [2], over 40 µM; in assay [3], 15.6 µM; in [4], 0.328 µM; in assay [5], 0.092 µM; in assay [6] it was 0.115 µM. Also, the 50% inhibitory concentration (IC50) in assay [7], in [8] and in [9] was over 40 µM each time.
